Reference: patent US9695155B2, “Herbicidal substituted pyrimidinyloxy benzene compounds” (E. I. DU PONT DE NEMOURS AND COMPANY, priority 2013, dated 2017)

How the values were obtained:
barnyardgrass = assay: Test A preemergence; type: in vivo, Echinochloa crus-galli; details: for Barnyardgrass plant response rating: 500 g ai/ha
How it was run: (§1)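 Greenhouse pot test, loam/sand soil. Formulation: non-phytotoxic solvent mix plus surfactant. Pre: directed spray onto soil after sowing. Post: plants at 1–2 leaf, 2–10 cm. Rated visually vs untreated controls at ~10 d, 0 (no effect) to 100 (complete control).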

large (Lg) crabgrass = assay: Test A preemergence; type: in vivo, Digitaria sanguinalis; details: for Crabgrass, Large plant response rating: 500 g ai/ha
How it was run: as §1

wheat = assay: Test A preemergence; type: in vivo, Triticum aestivum
How it was run: as §1

giant foxtail = assay: Test A postemergence; type: in vivo, Setaria faberii; details: 0 to 100 scale where 0 is no effect and 100 is complete control
How it was run: as §1

morningglory [1] = assay: Test A postemergence; type: in vivo, Ipomoea spp.; details: 0 to 100 scale where 0 is no effect and 100 is complete control
How it was run: as §1

corn [2] = assay: Test A postemergence; type: in vivo, Zea mays; details: 0 to 100 scale where 0 is no effect and 100 is complete control
How it was run: as §1

Heteranthera limosa = assay: Test B flooded paddy test; type: in vivo; details: Flood, 250 g ai/ha; 0 to 100 scale where 0 is no effect and 100 is complete control
How it was run: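 Flooded to 3 cm at the 2-leaf stage, pots received compound through the paddy water and were kept at that depth under greenhouse conditions. After 13–15 days, effect was rated by eye relative to controls, 0 = none and 100 = complete control.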

Italian ryegrass = assay: Test C preemergence; type: in vivo, Lolium multiflorum; details: for Ryegrass, Italian plant response rating: preemergence; for Plant response rating, Ryegrass, Italian: Preemergence, scale 0 to 100, 0 no effect, 100 complete control
How it was run: (§2)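 Whole-plant greenhouse test with surfactant-containing solvent formulation, applied preemergence to sown loam–sand pots or postemergence to 2–18 cm plants. Scored by eye 13 to 15 days on, 0–100 scale.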

ragweed = assay: Test C preemergence; type: in vivo, Ambrosia elatior; details: for Ragweed plant response rating: preemergence; for Plant response rating, Ragweed: Preemergence, scale 0 to 100, 0 no effect, 100 complete control
How it was run: as §2

oilseed rape = assay: Test C preemergence; type: in vivo, Brassica napus; details: for Oilseed Rape plant response rating: preemergence; for Plant response rating, Oilseed Rape: Preemergence, scale 0 to 100, 0 no effect, 100 complete control
How it was run: as §2

corn [3] = assay: Test C postemergence; type: in vivo, Zea mays; details: for Corn plant response rating / Plant response rating, Corn: scale 0 to 100 (0 no effect, 100 complete control)
How it was run: as §2

morningglory [4] = assay: Test C postemergence; type: in vivo, Ipomoea coccinea
How it was run: as §2

pigweed = assay: Test C postemergence; type: in vivo, Amaranthus retroflexus
How it was run: as §2

kochia = assay: Test C postemergence; type: in vivo, Kochia scoparia; details: for Kochia plant response rating / Plant response rating, Kochia: scale 0 to 100 (0 no effect, 100 complete control)
How it was run: as §2

wild oat = assay: Test C postemergence; type: in vivo, Avena fatua
How it was run: as §2

[5] = 0 to 100 scale where 0 is no effect and 100 is complete control
[6] = 125 g ai/ha, scale 0 (no effect) to 100 (complete control)
[7] = 250 g ai/ha, scale 0 (no effect) to 100 (complete control)
[8] = 31 g ai/ha, postemergence, visual rating, 13 to 15 days
[9] = 125 g ai/ha, postemergence, visual rating
[10] = Postemergence, 62 g ai/ha, 13 to 15 days
[11] = 31 g ai/ha, postemergence, visual rating, scale 0 to 100 (0 no effect, 100 complete control), 13 to 15 days
[12] = 125 g ai/ha, postemergence, visual rating, scale 0 to 100 (0 no effect, 100 complete control)
[13] = Postemergence, 62 g ai/ha, scale 0 to 100 (0 no effect, 100 complete control), 13 to 15 days
[14] = 125 g ai/ha, 0 to 100 scale where 0 is no effect and 100 is complete control
[15] = 0 to 100 scale, 0 no effect, 100 complete control, approx. 10 days
[16] = 16 g ai/ha, scale 0 to 100 (0 no effect, 100 complete control)
[17] = 62 g ai/ha, scale 0 (no effect) to 100 (complete control)
[18] = 16 g ai/ha, postemergence, visual rating, 13 to 15 days
[19] = Postemergence, 31 g ai/ha, 13 to 15 days
[20] = Postemergence, 31 g ai/ha, scale 0 to 100 (0 no effect, 100 complete control), 13 to 15 days
[21] = Postemergence, 62 g ai/ha, scale 0 to 100 (0 no effect, 100 complete control)

SMILES: N#Cc1cccc(Oc2ncc(Cl)cn2)c1-n1cc(I)cn1 [Compound 204]
- Barnyardgrass plant response rating (0 to 100 scale, 0 is no effect, 100 is complete control) (barnyardgrass; 125 g ai/ha): 70
- Barnyardgrass plant response rating (barnyardgrass; [5]): 100
- Crabgrass, Large plant response rating (0 to 100 scale) (large (Lg) crabgrass; 125 g ai/ha): 100
- Crabgrass, Large plant response rating (large (Lg) crabgrass; [5]): 100
- Wheat plant response rating (0 to 100 scale) (wheat; 125 g ai/ha): 40
- Wheat plant response rating (wheat; 500 g ai/ha, 0 to 100 scale where 0 is no effect and 100 is complete control): 60
- Foxtail, Giant plant response rating (giant foxtail; 125 g ai/ha): 80
- Plant response rating, Foxtail, Giant (giant foxtail; 500 g ai/ha): 100
- Morningglory plant response rating (morningglory [1]; 125 g ai/ha): 80
- Plant response rating, Morningglory (morningglory [1]; 500 g ai/ha): 100
- Corn plant response rating (corn [2]; 125 g ai/ha): 50
- Plant response rating, Corn (corn [2]; 500 g ai/ha): 60
- Plant response rating, Ducksalad (Heteranthera limosa): 70
- Ryegrass, Italian plant response rating (Italian ryegrass; [6]): 75
- Ryegrass, Italian plant response rating (Italian ryegrass; [7]): 95
- Plant response rating, Ryegrass, Italian (Italian ryegrass; 62 g ai/ha): 35
- Ragweed plant response rating (ragweed; [6]): 5
- Ragweed plant response rating (ragweed; [7]): 85
- Plant response rating, Ragweed (ragweed; 62 g ai/ha): 5
- Oilseed Rape plant response rating (oilseed rape; [6]): 98
- Oilseed Rape plant response rating (oilseed rape; [7]): 100
- Plant response rating, Oilseed Rape (oilseed rape; 62 g ai/ha): 95
- Corn plant response rating (corn [3]; [8]): 10
- Plant response rating, Corn (corn [3]; [9]): 20
- Plant response rating (0 to 100), Corn (corn [3]; 250 g ai/ha, postemergence): 20
- Plant response rating, Corn (corn [3]; [10]): 20
- Morningglory plant response rating (morningglory [4]; [11]): 60
- Plant response rating, Morningglory (morningglory [4]; [12]): 98
- Plant response rating (0 to 100), Morningglory (morningglory [4]; 250 g ai/ha, postemergence): 95
- Plant response rating, Morningglory (morningglory [4]; [13]): 65
- Pigweed plant response rating (pigweed; [11]): 80
- Plant response rating, Pigweed (pigweed; [12]): 95
- Plant response rating (0 to 100), Pigweed (pigweed; 250 g ai/ha, postemergence): 98
- Plant response rating, Pigweed (pigweed; [13]): 95
- Kochia plant response rating (kochia; [8]): 90
- Plant response rating, Kochia (kochia; [9]): 100
- Plant response rating (0 to 100), Kochia (kochia; 250 g ai/ha, postemergence): 100
- Plant response rating, Kochia (kochia; [10]): 100
- Oat, Wild plant response rating (wild oat; [11]): 20
- Plant response rating, Oat, Wild (wild oat; [12]): 15
- Plant response rating (0 to 100), Oat, Wild (wild oat; 250 g ai/ha, postemergence): 15
- Plant response rating, Oat, Wild (wild oat; [13]): 15

SMILES: CCOc1cnn(-c2c(C#N)cccc2Oc2ncc(Cl)cn2)c1 [Compound 92]
- Plant response rating, Barnyardgrass (barnyardgrass; [14]): 60
- Barnyardgrass plant response rating (barnyardgrass; [15]): 100
- Plant response rating, Crabgrass, Large (large (Lg) crabgrass; [14]): 100
- Crabgrass, Large plant response rating (large (Lg) crabgrass; [15]): 100
- Plant response rating, Wheat (wheat; [14]): 0
- Plant response rating, Foxtail, Giant (giant foxtail; 125 g ai/ha): 80
- Plant response rating, Foxtail, Giant (giant foxtail; 500 g ai/ha): 90
- Plant response rating, Morningglory (morningglory [1]; 125 g ai/ha): 100
- Plant response rating, Morningglory (morningglory [1]; 500 g ai/ha): 100
- Plant response rating, Corn (corn [2]; 125 g ai/ha): 50
- Plant response rating, Corn (corn [2]; 500 g ai/ha): 80
- Plant response rating, Ducksalad (Heteranthera limosa): 95
- Ryegrass, Italian plant response rating (Italian ryegrass; [16]): 0
- Ryegrass, Italian plant response rating (Italian ryegrass; [17]): 50
- Ryegrass, Italian plant response rating (Italian ryegrass; [6]): 85
- Plant response rating, Ryegrass, Italian (Italian ryegrass; 31 g ai/ha): 10
- Ragweed plant response rating (ragweed; [16]): 10
- Ragweed plant response rating (ragweed; [17]): 50
- Ragweed plant response rating (ragweed; [6]): 85
- Plant response rating, Ragweed (ragweed; 31 g ai/ha): 5
- Oilseed Rape plant response rating (oilseed rape; [16]): 80
- Oilseed Rape plant response rating (oilseed rape; [17]): 85
- Oilseed Rape plant response rating (oilseed rape; [6]): 95
- Plant response rating, Oilseed Rape (oilseed rape; 31 g ai/ha): 80
- Corn plant response rating (corn [3]; [18]): 5
- Plant response rating (0 to 100), Corn (corn [3]; 125 g ai/ha, postemergence): 5
- Plant response rating, Corn (corn [3]; [19]): 5
- Plant response rating, Corn (corn [3]; Postemergence, 62 g ai/ha): 5
- Plant response rating (0 to 100), Morningglory (morningglory [4]; 125 g ai/ha, postemergence): 85
- Plant response rating, Morningglory (morningglory [4]; [20]): 85
- Plant response rating, Morningglory (morningglory [4]; [21]): 90
- Plant response rating (0 to 100), Pigweed (pigweed; 125 g ai/ha, postemergence): 75
- Plant response rating, Pigweed (pigweed; [20]): 60
- Plant response rating, Pigweed (pigweed; [21]): 55
- Kochia plant response rating (kochia; [18]): 40
- Plant response rating (0 to 100), Kochia (kochia; 125 g ai/ha, postemergence): 85
- Plant response rating, Kochia (kochia; [19]): 60
- Plant response rating, Kochia (kochia; Postemergence, 62 g ai/ha): 80
- Plant response rating (0 to 100), Oat, Wild (wild oat; 125 g ai/ha, postemergence): 15
- Plant response rating, Oat, Wild (wild oat; [20]): 5
- Plant response rating, Oat, Wild (wild oat; [21]): 10
